One test deals with potassium channels. The test can be described thus: Membrane Hyperpolarization (MHP) in Guinea-Pig Bladder (GPB) Cells, FLIPR with DiBAC(4)3. In kind it is cell-based. To be noted: for EC50: concentration eliciting 50% of the test sample's maximal response; for Maximal Response (% P1075): maximal steady-state hyperpolarization relative to 10 μM P1075 (100%). Here is the method: Compounds were evaluated for potassium channel opening activity using primary cultured quinea-pig urinary bladder (GPB) cells.
For the preparation of urinary bladder smooth muscle cells, urinary bladders were removed from male quinea-pigs (Hartley, Charles River, Wilmington, Mass.) weighing 300-400 g and placed in ice-cold Ca^2+ -free Krebs solution (Composition, mM: KCl, 2.7; KH2 PO4, 1.5; NaCl, 75; Na2 HPO4, 9.6; Na2 HPO4.7H2 O, 8; MgSO4, 2; glucose, 5; HEPES, 10; pH 7.4). Cells were isolated by enzymatic dissociation as previously described with minor modifications in (Klockner, U. and Isenberg, G., Pflugers Arch. 1985, 405, 329-339), hereby incorporated by reference. The bladder was cut into small sections and incubated in 5 mL of the Kreb's solution containing 1 mg/mL collagenase (Sigma, St. Louis, Mo.) and 0.2 mg/mL pronase (Calbiochem, La Jolla, Calif.) with continuous stirring in a cell incubator for 30 minutes. The mixture was then centrifuged at 1300×g for 5 minutes, and the pellet resuspended in Dulbecco's PBS (GIBCO, Gaithersburg, Md.) and recentrifuged to remove residual enzyme. The cell pellet was resuspended in 5 mL growth media (composition: Dulbecco's modified Eagle's medium supplemented with 10% fetal bovine serum, 100 units/niL penicillin, 100 units/mL streptomycin and […] amphotericin B) and further dissociated by pipetting the suspension through a flame-polished Pasteur pipette and passing it through a polypropylene mesh membrane (Spectrum, Houston, Tex.). The cell density was adjusted to 100,000 cells/mL by resuspension in growth media. Cells were plated in clear-bottomed black 96-well plates (Packard) for membrane potential studies at a density of 20,000 cells/well and maintained in a cell incubator with 90% air: 10% CO2 until confluent. Cells were confirmed to be of smooth muscle type by cytoskeletal staining using a monoclonal mouse anti human-α-smooth muscle actin (Biomeda, Foster City, Calif.).
Functional activity at potassium channels was measured by evaluating changes in membrane potential using the bis-oxonol dye DiBAC(4)3 (Molecular Probes) in a 96-well cell-based kinetic assay system, Fluorescent Imaging Plate Reader (FLIPR) (K. S. Schroeder et al., J. Biomed. Screen., v. 1 pp. 75-81 (1996)), hereby incorporated by reference. DiBAC(4)3 is an anionic potentiometric probe which partitions between cells and extracellular solution in a membrane potential-dependent manner. With increasing membrane potential (for example, K^+ depolarization), the probe further partitions into the cell; this is measured as an increase in fluorescence due to dye interaction with intracellular lipids and proteins. Conversely, decreasing membrane potential (hyperpolarizationby potassium channel openers) evokes a decrease in fluorescence.
Confluent quinea-pig urinary bladder cells cultured in black clear-bottomed96-well plates were rinsed twice with […] assay buffer (composition, mM: HEPES, 20; NaCl, 120; KCl, 2; CaCl2, 2; MgCl2, 1; glucose, 5; pH 7.4 at 25 ° C.) containing 5 μM DiBAC(4)3 and incubated with […] of the buffer in a cell incubator for 30 minutes at 37 ° C. to ensure dye distribution across the membrane. After recording the baseline fluorescence for 5 minutes, the reference or test compounds, prepared at 10 times the concentration in the assay buffer, were added directly to the wells. Changes in fluorescence were monitored for an additional 25 minutes. Hyperpolarization responses were corrected for any background noise and were normalized to the response observed with 10 μM of the reference compound P1075, N"-cyano-N-(tert-pentyl)-N'-(3-pyridinyl)quanidine, which was assigned as 100%. P1075 is a potent opener of smooth muscle KATP channels (Quast et al., Mol. Pharmacol., v. 43 pp. 474-481 (1993)) and was prepared using the procedures described in (Manley, J. Med. Chem. (1992) 35, 2327-2340), hereby incorporated by reference. […]

The test system of another test is potassium channel. Description: Functional Potassium Channel Opening Activity in Isolated Bladder Strips (electrically stimulated twitch). As to conditions: Landrace pig bladder strips; for Index: ED50 of P1075 divided by ED50 of test agonist, averaged over tissues; for Efficacy (% P1075): maximal efficacy relative to P1075, field stimulation 0.05 Hz; for pD2: negative logarithm of ED50. Here is the method: Compounds of the present invention were evaluated for functional potassium channel opening activity using tissue strips obtained from Landrace pig bladders.
Landrace pig bladders were obtained from female Landrace pigs of 9-30 kg. Landrace pigs wer eutanized with an intraperitoneal injection of pentobarbital solution, Somlethal®, J. A. Webster Inc., Sterling Mass. The entire bladder was removed and immediately placed into Krebs Ringer bicarbonate solution (composition, mM: NaCl, 120; NaHCO3, 20; dextrose, 11; KCl, 4.7; CaCl2, 2.5; MgSO4, 1.5; KH2 PO4, 1.2; K2 EDTA, 0.01, equilibrated with 5% CO2 /95% O2 pH 7.4 at 37 ° C.). Propranolol (0.004 mM) was included in all of the assays to block β-adrenoceptors. The trigonal and dome portions were discarded. Strips 3-5 mm wide and 20 mm long were prepared from the remaining tissue cut in a circular fashion. The mucosal layer was removed. One end was fixed to a stationary glass rod and the other to a Grass FT03 transducer at a basal preload of 1.0 gram. Two parallel platinum electrodes were included in the stationary glass rod to provide field stimulation of 0.05 Hz, 0.5 milli-seconds at 20 volts. This low frequency stimulation produced a stable twitch response of 100-500 centigrams. Tissues were allowed to equilibrate for at least 60 minutes and primed with 80 mM KCl. A control concentration response curve (cumulative) was generated for each tissue using the potassium channel opener P1075 as the control agonist. […] After a 60 minute rinsing period, a concentration response curve (cumulative) was generated for the test agonist in the same fashion as that used for the control agonist P1075. The maximal efficacy of each compounds (expressed as % relative to P1075) is reported. The amount of agent necessary to cause 50% of the agent's maximal response (ED50) was calculated using "ALLFIT" (DeLean et al., Am. J. Physiol., 235, E97 (1980)), hereby incorporated by reference, and agonist potencies were expressed as pD2 (the negative logarithm). Agonist potencies were also expressed as an index relative to P1075. The index was calculated by dividing the ED50 for P1075 by the ED50 for the test agonist in a given tissue. Each tissue was used for only one test agonist, and the indices obtained from each tissue were averaged to provide an average index of potency.

Test [1] has as its target smooth muscle KATP channels (Rattus norvegicus, UniProt Q63563). As to conditions: Quast et al., Mol. Pharmacol., v. 43 pp. 474-481 (1993); cited from earlier work.

Molecules are shown by their SMILES.

Chain of smooth muscle KATP channels (Q63563 1-1545 isoform Q63563-2): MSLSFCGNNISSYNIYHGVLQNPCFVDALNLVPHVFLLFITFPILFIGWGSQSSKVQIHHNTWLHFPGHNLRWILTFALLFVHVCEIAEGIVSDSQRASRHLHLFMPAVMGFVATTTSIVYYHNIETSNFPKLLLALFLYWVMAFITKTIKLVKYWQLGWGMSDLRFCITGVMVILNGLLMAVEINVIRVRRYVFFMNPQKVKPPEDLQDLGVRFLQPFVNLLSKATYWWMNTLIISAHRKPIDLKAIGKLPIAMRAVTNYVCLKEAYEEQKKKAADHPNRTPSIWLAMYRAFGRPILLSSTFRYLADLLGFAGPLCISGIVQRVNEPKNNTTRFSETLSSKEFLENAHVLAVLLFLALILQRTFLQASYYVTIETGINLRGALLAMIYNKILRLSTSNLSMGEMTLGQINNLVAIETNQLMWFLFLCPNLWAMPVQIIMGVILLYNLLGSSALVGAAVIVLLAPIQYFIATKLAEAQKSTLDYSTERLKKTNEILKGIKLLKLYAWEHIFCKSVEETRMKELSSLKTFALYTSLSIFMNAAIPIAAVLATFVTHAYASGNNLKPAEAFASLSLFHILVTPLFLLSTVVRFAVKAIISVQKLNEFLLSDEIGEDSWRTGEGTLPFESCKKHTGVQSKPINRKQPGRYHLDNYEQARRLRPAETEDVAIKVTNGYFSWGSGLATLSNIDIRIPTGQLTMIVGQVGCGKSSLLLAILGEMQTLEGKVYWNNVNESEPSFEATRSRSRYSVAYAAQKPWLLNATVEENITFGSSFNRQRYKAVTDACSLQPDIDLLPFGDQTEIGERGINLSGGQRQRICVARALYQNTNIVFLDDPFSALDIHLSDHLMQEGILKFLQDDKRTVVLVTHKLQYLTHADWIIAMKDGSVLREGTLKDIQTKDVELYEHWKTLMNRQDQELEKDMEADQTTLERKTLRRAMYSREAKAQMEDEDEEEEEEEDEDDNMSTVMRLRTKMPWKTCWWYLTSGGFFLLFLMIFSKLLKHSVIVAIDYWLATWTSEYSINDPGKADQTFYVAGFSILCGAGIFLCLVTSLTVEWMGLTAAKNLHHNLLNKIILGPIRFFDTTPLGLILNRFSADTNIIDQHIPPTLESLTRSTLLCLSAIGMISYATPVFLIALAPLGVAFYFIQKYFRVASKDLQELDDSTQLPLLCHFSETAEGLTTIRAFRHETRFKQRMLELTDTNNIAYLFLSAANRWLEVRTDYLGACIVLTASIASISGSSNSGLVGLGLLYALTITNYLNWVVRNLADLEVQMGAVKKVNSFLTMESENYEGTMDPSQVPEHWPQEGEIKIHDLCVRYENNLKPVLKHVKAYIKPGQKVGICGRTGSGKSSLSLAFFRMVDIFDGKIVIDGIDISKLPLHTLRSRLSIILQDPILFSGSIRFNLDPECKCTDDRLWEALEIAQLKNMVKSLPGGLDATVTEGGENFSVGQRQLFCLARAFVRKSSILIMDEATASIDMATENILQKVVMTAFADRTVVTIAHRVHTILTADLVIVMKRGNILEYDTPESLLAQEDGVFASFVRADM
Chain of smooth muscle KATP channels (Q63664 whole entry partner): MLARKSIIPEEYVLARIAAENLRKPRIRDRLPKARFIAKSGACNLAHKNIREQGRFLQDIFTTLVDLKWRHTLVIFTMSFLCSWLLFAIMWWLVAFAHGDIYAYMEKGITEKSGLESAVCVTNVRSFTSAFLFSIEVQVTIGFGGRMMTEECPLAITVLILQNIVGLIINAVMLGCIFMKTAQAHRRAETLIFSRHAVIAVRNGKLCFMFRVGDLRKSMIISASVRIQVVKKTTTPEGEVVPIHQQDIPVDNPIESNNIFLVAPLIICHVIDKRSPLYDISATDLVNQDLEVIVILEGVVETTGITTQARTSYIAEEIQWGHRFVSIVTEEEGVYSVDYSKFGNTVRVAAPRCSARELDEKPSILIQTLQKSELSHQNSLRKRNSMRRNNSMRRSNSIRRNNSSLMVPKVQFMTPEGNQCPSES

As for `O=C1CCCC2=C1C(c1ccc(F)c(Br)c1)n1nccc1N2` (single isomer, unassigned; (+)) [Example 16, (+) 9-(3-bromo-4-fluorophenyl)-5,6,7,9-tetrahydropyrazolo [5,1-b]quinazolin-8(4H)-one], in the test on potassium channels, a half-maximal response (EC50) required 0.02 µM and the “Maximal Response (% P1075)” value stood at 105 % P1075. In addition, in the test with potassium channel, the Index was 0.28, the “Efficacy (% P1075)” value was found to be 95 % P1075 and the pD2 came out at 6.34.
Taken in the same sequence, the figures for `O=C1CCCC2=C1C(c1ccc(F)c(Br)c1)n1nccc1N2` (single isomer, unassigned; (-)) [Example 15, (-) 9-(3-bromo-4-fluorophenyl)-5,6,7,9-tetrahydropyrazolo[5,1-b]quinazolin-8(4H)-one] were 0.051 µM, 103 % P1075, 0.21, 100 % P1075 and 6.67.
Taken in the same sequence, the figures for `O=C1CCCC2=C1C(c1ccc(F)c(Br)c1)n1nccc1N2` (stereo not drawn) [Example 1] were 0.031 µM, 87 % P1075, 0.26, 96 % P1075 and 6.47.
Turning to `O=C1CSCC2=C1C(c1ccc(F)c(Br)c1)n1nccc1N2` (stereo not drawn) [Example 2, 9-(3-bromo-4-fluorophenyl)-5,9-dihydro-4H-pyrazolo[1,5-a]thiopyrano[3,4-d]pyrimidin-8(7H)-one], in the test on potassium channels, the EC50 came out at 0.04 µM and the “Maximal Response (% P1075)” value came to 100 % P1075.
Taken in the same sequence, the figures for `O=C1CCCC2=C1C(c1cccc3ccccc13)n1nccc1N2` (stereo not drawn) [Example 3, 9-(1-naphthyl)-5,6,7,9-tetrahydropyrazolo[5,1-b]quinazolin-8(4H)-one] were 24 µM and 34 % P1075.
Taken in the same sequence, the figures for `O=C1CCCC2=C1C(c1ccc3ccccc3c1)n1nccc1N2` (stereo not drawn) [Example 4, 9-(2-naphthyl)-5,6,7,9-tetrahydropyrazolo[5,1-b]quinazolin-8(4H)-one] were 0.429 µM and 96 % P1075.
Taken in the same sequence, the figures for `O=C1CCCC2=C1C(c1ccc(Br)c(Br)c1)n1nccc1N2` (stereo not drawn) [Example 5, 9-(3 4-dibromophenyl)-5,6,7,9-tetrahydropyrazolo[5,1-b]quinazolin-8(4H)-one] were 0.122 µM and 98 % P1075.
Regarding `O=C1CCCC2=C1C(c1ccc(Cl)c(Cl)c1)n1nccc1N2` (stereo not drawn) [Example 6, 9-(3,4-dichlorophenyl)-5,6,7,9-tetrahydropyrazolo [5,1-b]quinazolin-8(4H)-one], in the test on potassium channels, the EC50 is 0.13 µM and the “Maximal Response (% P1075)” value is on record as 95 % P1075.
Taken in the same sequence, the figures for `O=C1CCCC2=C1C(c1cccc(Br)c1)n1nccc1N2` (stereo not drawn) [Example 7, 9-(3-bromophenyl)-5,6,7,9-tetrahydropyrazolo[5,1-b]quinazolin-8(4H)-one] were 0.55 µM and 98 % P1075.
Taken in the same sequence, the figures for `O=C1CCCC2=C1C(c1cccc(Cl)c1)n1nccc1N2` (stereo not drawn) [Example 8, 9-(3-chlorophenyl)-5,6,7,9-tetrahydropyrazolo[5,1-b]quinazolin-8(4H)-one] were 1.12 µM and 92 % P1075.
Turning to `O=C1CCCC2=C1C(c1ccc(Cl)c(C(F)(F)F)c1)n1nccc1N2` (stereo not drawn) [Example 9, 9-[4-chloro-3-(trifluoromethyl)phenyl]-5,6,7,9-tetrahydropyrazolo[5,1-b]quinazolin-8(4H)-one], in the test on potassium channels, the EC50 was found to be 0.187 µM and the “Maximal Response (% P1075)” value turned out to be 94 % P1075.
`O=C1CCCC2=C1C(c1ccc(F)c(C(F)(F)F)c1)n1nccc1N2` (stereo not drawn) [Example 10, 9-[4-fluoro-3-(trifluoromethyl)phenyl]-5,6,7,9-tetrahydropyrazolo[5,1-b]quinazolin-8(4H)-one]: in the test on potassium channels, the EC50 turned out to be 0.29 µM and the “Maximal Response (% P1075)” value is recorded as 100 % P1075.
With `O=C1CCCC2=C1C(c1cccc(OC(F)(F)F)c1)n1nccc1N2` (stereo not drawn) [Example 11, 9-[3-(trifluoromethoxy)phenyl]-5,6,7,9-tetrahydropyrazolo[5,1-b]quinazolin-8(4H)-one], in the test with potassium channels, the EC50 was 1.71 µM and the “Maximal Response (% P1075)” value came to 90 % P1075.
For `N#Cc1cccc(C2C3=C(CCCC3=O)Nc3ccnn32)c1` (stereo not drawn) [Example 12, 9-(3-cyanophenyl)-5,6,7,9-tetrahydropyrazolo[5,1-b]quinazolin-8(4H)-one], in the test with potassium channels, the EC50 was 2.86 µM and the “Maximal Response (% P1075)” value is listed as 85 % P1075.
The like results for `Cc1cccc(C2C3=C(CCCC3=O)Nc3ccnn32)c1` (stereo not drawn) [Example 13, 9-(3-methylphenyl)-5,6,7,9-tetrahydropyrazolo[5,1-b]quinazolin-8(4H)-one] were, in that order, 10 µM and 50 % P1075.
The like results for `O=C1OCC2=C1C(c1ccc(F)c(Br)c1)n1nccc1N2` (stereo not drawn) [Example 14, 8-(3-bromo-4-fluorophenyl)-5,8-dihydro-4H,7H-furo[3,4-d]pyrazolo[1,5-a]pyrimidin-7-one] were, in that order, 0.258 µM and 89 % P1075.
Taken in the same sequence, the figures for `O=S1(=O)CCCC2=C1C(c1ccc(F)c(Br)c1)n1nccc1N2` (stereo not drawn) [Example 17] were 0.91 µM and 89 % P1075.
In the case of `CCC(C)(C)NC(=NC#N)Nc1cccnc1` [Example P1075, N"-cyano-N-(tert-pentyl)-N'-(3-pyridinyl)quanidine, reference compound], the “elimination of the stimulated twitch” value with potassium channel (dose dependent over 10^-9 to 10^-5 M) was “completely eliminated the stimulated twitch”. Also, the “opener of smooth muscle KATP channels” value in test [1] is recorded as “potent opener”.

The values are drawn from patent publication US6274587A, “Tricyclic dihydropyrimidine potassium channel openers” (Abbott Laboratories, priority 1999, dated 2001).
